Experimental data from ChEMBL document CHEMBL1201862, “PubChem BioAssay data set” (2004).
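Compound exposure: 48 hours, 5 concentrations, 96-well plates. GI50: concentration for 50% inhibition of growth.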 The source made the active and inactive calls. Rule as the data show it: active = GI50 up to about 1.1 µM and inactive = higher.

Tests used:
Experiment in all cases: NCI-60 cell line screen, 48 h
[1] = tested on: SNB-75
[2] = tested on: OVCAR-4
[3] = tested on: KM12
[4] = tested on: T47D
[5] = tested on: SN12C
[6] = tested on: HT-29
[7] = tested on: NCI-H23
[8] = tested on: IGROV-1
[9] = tested on: A549
[10] = tested on: UACC-257
[11] = tested on: MDA-MB-231
[12] = tested on: DU-145
[13] = tested on: RPMI-8226
[14] = tested on: U-251
[15] = tested on: Hs-578T
[16] = tested on: SW-620
[17] = tested on: OVCAR-5
[18] = tested on: LOX IMVI
[19] = tested on: M14
[20] = tested on: 786-0
[21] = tested on: SR
[22] = tested on: HCT-116
[23] = tested on: SF-539
[24] = tested on: PC-3
[25] = tested on: MCF7
[26] = tested on: SNB-19
[27] = tested on: CAKI-1
[28] = tested on: SK-MEL-2
[29] = tested on: SF-268
[30] = tested on: NCI-H226
[31] = tested on: MDA-MB-435
[32] = tested on: UO-31
[33] = tested on: HOP-92
[34] = tested on: MDA-N
[35] = tested on: HOP-62
[36] = tested on: OVCAR-8
[37] = tested on: OVCAR-3
[38] = tested on: SF-295
[39] = tested on: UACC-62
[40] = tested on: HCT-15
[41] = tested on: SK-MEL-5
[42] = tested on: HCC 2998
[43] = tested on: NCI-H460
[44] = tested on: ACHN
[45] = tested on: K562
[46] = tested on: TK-10
[47] = tested on: SK-OV-3
[48] = tested on: CCRF-CEM
[49] = tested on: BT-549
[50] = tested on: NCI/ADR-RES
[51] = tested on: MOLT-4
[52] = tested on: COLO 205
[53] = tested on: SK-MEL-28
[54] = tested on: EKVX
[55] = tested on: Malme-3M
[56] = tested on: NCI-H522
[57] = tested on: RXF 393

## CC(C)OCC1CC(CC(=O)Nc2nncs2)C(=O)O1 (stereo not given)
[1]
  GI50: > 100 µM (inactive)
[2]
  GI50: > 100 µM (inactive)
[3]
  GI50: > 100 µM (inactive)
[4]
  GI50: > 100 µM (inactive)
[5]
  GI50: > 100 µM (inactive)
[6]
  GI50: > 100 µM (inactive)
[7]
  GI50: > 100 µM (inactive)
[8]
  GI50: > 100 µM (inactive)
[9]
  GI50: > 100 µM (inactive)
[10]
  GI50: > 100 µM (inactive)
[11]
  GI50: > 100 µM (inactive)
[12]
  GI50: > 100 µM (inactive)
[13]
  GI50: > 100 µM (inactive)
[14]
  GI50: > 100 µM (inactive)
[15]
  GI50: > 100 µM (inactive)
[16]
  GI50: > 100 µM (inactive)
[17]
  GI50: > 100 µM (inactive)
[18]
  GI50: > 100 µM (inactive)
[19]
  GI50: > 100 µM (inactive)
[20]
  GI50: > 100 µM (inactive)
[21]
  GI50: > 100 µM (inactive)
[22]
  GI50: > 100 µM (inactive)
[23]
  GI50: > 100 µM (inactive)
[24]
  GI50: > 100 µM (inactive)
[25]
  GI50: > 100 µM (inactive)
[26]
  GI50: > 100 µM (inactive)
[27]
  GI50: > 100 µM (inactive)
[28]
  GI50: > 100 µM (inactive)
[29]
  GI50: > 100 µM (inactive)
[30]
  GI50: > 100 µM (inactive)
[31]
  GI50: > 100 µM (inactive)
[32]
  GI50: > 100 µM (inactive)
[33]
  GI50: > 100 µM (inactive)
[34]
  GI50: > 100 µM (inactive)
[35]
  GI50: > 100 µM (inactive)
[36]
  GI50: > 100 µM (inactive)
[37]
  GI50: > 100 µM (inactive)
[38]
  GI50: > 100 µM (inactive)
[39]
  GI50: > 100 µM (inactive)
[40]
  GI50: > 100 µM
[41]
  GI50: > 100 µM (inactive)
[42]
  GI50: > 100 µM (inactive)
[43]
  GI50: > 100 µM (inactive)
[44]
  GI50: > 100 µM (inactive)
[45]
  GI50: > 100 µM (inactive)
[46]
  GI50: > 100 µM (inactive)
[47]
  GI50: > 100 µM (inactive)
[48]
  GI50: > 100 µM (inactive)
[49]
  GI50: > 100 µM (inactive)
[50]
  GI50: > 100 µM (inactive)
[51]
  GI50: > 100 µM (inactive)
[52]
  GI50: > 100 µM (inactive)
[53]
  GI50: > 100 µM (inactive)
[54]
  GI50: > 100 µM (inactive)

## CN1CCCN(C)CCCN(C)CCCN(C)CCC1
[55]
  GI50: > 100 µM (inactive)
[2]
  GI50: > 100 µM (inactive)
[3]
  GI50: > 100 µM (inactive)
[4]
  GI50: > 100 µM (inactive)
[6]
  GI50: > 100 µM (inactive)
[7]
  GI50: > 100 µM (inactive)
[8]
  GI50: > 100 µM (inactive)
[9]
  GI50: > 100 µM (inactive)
[10]
  GI50: > 100 µM (inactive)
[11]
  GI50: > 100 µM (inactive)
[12]
  GI50: > 100 µM (inactive)
[13]
  GI50: > 100 µM (inactive)
[14]
  GI50: > 100 µM (inactive)
[15]
  GI50: > 100 µM (inactive)
[16]
  GI50: > 100 µM (inactive)
[17]
  GI50: > 100 µM (inactive)
[19]
  GI50: > 100 µM (inactive)
[20]
  GI50: > 100 µM (inactive)
[21]
  GI50: > 100 µM (inactive)
[22]
  GI50: > 100 µM (inactive)
[24]
  GI50: > 100 µM (inactive)
[25]
  GI50: > 100 µM (inactive)
[26]
  GI50: > 100 µM (inactive)
[27]
  GI50: > 100 µM (inactive)
[28]
  GI50: > 100 µM (inactive)
[29]
  GI50: > 100 µM (inactive)
[30]
  GI50: > 100 µM (inactive)
[31]
  GI50: > 100 µM (inactive)
[32]
  GI50: > 100 µM (inactive)
[34]
  GI50: > 100 µM (inactive)
[35]
  GI50: > 100 µM (inactive)
[36]
  GI50: > 100 µM (inactive)
[37]
  GI50: > 100 µM (inactive)
[38]
  GI50: > 100 µM (inactive)
[39]
  GI50: > 100 µM (inactive)
[40]
  GI50: > 100 µM
[41]
  GI50: > 100 µM (inactive)
[42]
  GI50: > 100 µM (inactive)
[44]
  GI50: > 100 µM (inactive)
[45]
  GI50: > 100 µM (inactive)
[56]
  GI50: > 100 µM (inactive)
[46]
  GI50: > 100 µM (inactive)
[47]
  GI50: > 100 µM (inactive)
[48]
  GI50: > 100 µM (inactive)
[49]
  GI50: > 100 µM (inactive)
[50]
  GI50: > 100 µM (inactive)
[51]
  GI50: > 100 µM (inactive)
[52]
  GI50: > 100 µM (inactive)
[53]
  GI50: > 100 µM (inactive)
[57]
  GI50: > 100 µM (inactive)
[54]
  GI50: > 100 µM (inactive)
